# Measured values as given in US20250129104A1, “7H-PYRROLO[2,3-D]PYRIMIDINES AND PREPARATION AND USES THEREOF” (BioSplice Therapeutics, Inc., priority 2021, published 2025).
# Target: recombinant DYRK1A kinase (Homo sapiens (Human), UniProt Q13627)
# Test: DYRK1A kinase assay (Ser/Thr 18 peptide Z-lyte FRET assay)
# Format: biochemical
# Settings: DYRK1A kinase activity; 15 μM ATP, 1 h room temperature; method text calls the value IC50
# Procedure, shortened: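 FRET Z-lyte read-out (coumarin/fluorescein ratio, % phosphorylation) after 1 h development; IC50 from non-linear curve fit. Reaction: 0.25 μg/mL recombinant human DYRK1A, Ser/Thr 18 peptide 4 μM, ATP 15 μM, compound in 11-point 1:3 series from 10 μM, 1 h, room temperature, duplicate wells.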
structure (smiles),measurement,value
"CCOc1nc(N[C@H]2CC[C@@](C)(O)CC2)nc2[nH]cc(-c3ccc4nccn4c3)c12 [Compound 2254, cis-4-((4-Ethoxy-5-(imidazo[1,2-a]pyridin-6-yl)-7H-pyrrolo[2,3-d]pyrimidin-2-yl)amino)-1-methylcyclohexan-1-ol]",EC50,0.0258 µM
"COc1nc(NCC(C)(C)F)nc2[nH]cc(-c3cc(F)c4nccn4c3)c12 [Compound 2255, N-(2-Fluoro-2-methylpropyl)-5-(8-fluoroimidazo[1,2-a]pyridin-6-yl)-4-methoxy-7H-pyrrolo[2,3-d]pyrimidin-2-amine]",EC50,0.019 µM
"[2H]C([2H])([2H])O[C@H]1CC[C@@H](Nc2nc(OC)c3c(-c4cc(F)c5nccn5c4)c[nH]c3n2)CC1 [Compound 2256, 5-(8-Fluoroimidazo[1,2-a]pyridin-6-yl)-4-methoxy-N-(cis-4-(methoxy-d3)cyclohexyl)-7H-pyrrolo[2,3-d]pyrimidin-2-amine]",EC50,0.015 µM
"COc1nc(N[C@H]2CC[C@@H](OC(F)F)CC2)nc2[nH]cc(-c3cc(F)c4nccn4c3)c12 [Compound 2258, N-(cis-4-(Difluoromethoxy)cyclohexyl)-5-(8-fluoroimidazo[1,2-a]pyridin-6-yl)-4-methoxy-7H-pyrrolo[2,3-d]pyrimidin-2-amine]",EC50,0.193 µM
"COc1nc(N[C@H]2CC[C@@H](OC(F)(F)F)CC2)nc2[nH]cc(-c3cc(F)c4nccn4c3)c12 [Compound 2260, 5-(8-Fluoroimidazo[1,2-a]pyridin-6-yl)-4-methoxy-N-(cis-4-(trifluoromethoxy)cyclohexyl)-7H-pyrrolo[2,3-d]pyrimidin-2-amine]",EC50,0.245 µM
"COc1nc(NC2CCC(F)(F)CC2)nc2[nH]cc(-c3cnc4nccn4c3)c12 [Compound 2268, N-(4,4-Difluorocyclohexyl)-5-(imidazo[1,2-a]pyrimidin-6-yl)-4-methoxy-7H-pyrrolo[2,3-d]pyrimidin-2-amine]",EC50,0.0099 µM
"COc1nc(NCC(C)(C)F)nc2[nH]cc(-c3cnc4nc(C)n(CC(F)F)c4c3)c12 [Compound 2269, 5-(1-(2,2-Difluoroethyl)-2-methyl-1H-imidazo[4,5-b]pyridin-6-yl)-N-(2-fluoro-2-methylpropyl)-4-methoxy-7H-pyrrolo[2,3-d]pyrimidin-2-amine]",EC50,0.0772 µM
"COC[C@@H](C)Nc1nc(OC)c2c(-c3cnc4nc(C)n(CC(F)F)c4c3)c[nH]c2n1 [Compound 2271, (R)-5-(1-(2,2-Difluoroethyl)-2-methyl-1H-imidazo[4,5-b]pyridin-6-yl)-4-methoxy-N-(1-methoxypropan-2-yl)-7H-pyrrolo[2,3-d]pyrimidin-2-amine]",EC50,0.112 µM
"COc1nc(NC2CCC(F)(F)CC2)nc2[nH]cc(-c3cnc4nc(C)n(CC(F)F)c4c3)c12 [Compound 2272, N-(4,4-Difluorocyclohexyl)-5-(1-(2,2-difluoroethyl)-2-methyl-1H-imidazo[4,5-b]pyridin-6-yl)-4-methoxy-7H-pyrrolo[2,3-d]pyrimidin-2-amine]",EC50,0.0622 µM
"COc1nc(NCC(C)(C)F)nc2[nH]cc(-c3ccc4nc(C)n(CC(F)F)c4n3)c12 [Compound 2276, 5-(3-(2,2-Difluoroethyl)-2-methyl-3H-imidazo[4,5-b]pyridin-5-yl)-N-(2-fluoro-2-methylpropyl)-4-methoxy-7H-pyrrolo[2,3-d]pyrimidin-2-amine]",EC50,0.256 µM
"COC[C@@H](C)Nc1nc(OC)c2c(-c3ccc4nc(C)n(CC(F)F)c4n3)c[nH]c2n1 [Compound 2278, (R)-5-(3-(2,2-Difluoroethyl)-2-methyl-3H-imidazo[4,5-b]pyridin-5-yl)-4-methoxy-N-(1-methoxypropan-2-yl)-7H-pyrrolo[2,3-d]pyrimidin-2-amine]",EC50,1 µM
"COc1nc(NC2CCC(F)(F)CC2)nc2[nH]cc(-c3ccc4nc(C)n(CC(F)F)c4n3)c12 [Compound 2279, N-(4,4-Difluorocyclohexyl)-5-(3-(2,2-difluoroethyl)-2-methyl-3H-imidazo[4,5-b]pyridin-5-yl)-4-methoxy-7H-pyrrolo[2,3-d]pyrimidin-2-amine]",EC50,0.25 µM
"COc1nc(N[C@H]2CC[C@@H](OC(F)F)CC2)nc2[nH]cc(-c3ccc4nc(C)n(CC(F)F)c4n3)c12 [Compound 2281, 5-(3-(2,2-Difluoroethyl)-2-methyl-3H-imidazo[4,5-b]pyridin-5-yl)-N-(cis-4-(difluoromethoxy)cyclohexyl)-4-methoxy-7H-pyrrolo[2,3-d]pyrimidin-2-amine]",EC50,0.269 µM
"COc1nc(NCC(C)(C)F)nc2[nH]cc(-c3ccc4nnn(C)c4c3)c12 [Compound 2283, N-(2-Fluoro-2-methylpropyl)-4-methoxy-5-(1-methyl-1H-benzo[d][1,2,3]triazol-6-yl)-7H-pyrrolo[2,3-d]pyrimidin-2-amine]",EC50,0.0474 µM
"COc1nc(NC2CCC(F)(F)CC2)nc2[nH]cc(-c3ccc4nnn(C)c4c3)c12 [Compound 2284, N-(4,4-Difluorocyclohexyl)-4-methoxy-5-(1-methyl-1H-benzo[d][1,2,3]triazol-6-yl)-7H-pyrrolo[2,3-d]pyrimidin-2-amine]",EC50,0.0839 µM
"[2H]C([2H])([2H])O[C@H]1CC[C@@H](Nc2nc(OC)c3c(-c4ccc5nnn(C)c5c4)c[nH]c3n2)CC1 [Compound 2285, 4-Methoxy-N-(cis-4-(methoxy-d3)cyclohexyl)-5-(1-methyl-1H-benzo[d][1,2,3]triazol-6-yl)-7H-pyrrolo[2,3-d]pyrimidin-2-amine]",EC50,0.2 µM
"COc1nc(N[C@H]2CC[C@@H](OC(F)F)CC2)nc2[nH]cc(-c3ccc4nnn(C)c4c3)c12 [Compound 2287, N-(cis-4-(Difluoromethoxy)cyclohexyl)-4-methoxy-5-(1-methyl-1H-benzo[d][1,2,3]triazol-6-yl)-7H-pyrrolo[2,3-d]pyrimidin-2-amine]",EC50,0.239 µM
"COc1nc(N[C@H]2CC[C@@H](OC(F)(F)F)CC2)nc2[nH]cc(-c3ccc4nnn(C)c4c3)c12 [Compound 2289, 4-Methoxy-5-(1-methyl-1H-benzo[d][1,2,3]triazol-6-yl)-N-(cis-4-(trifluoromethoxy)cyclohexyl)-7H-pyrrolo[2,3-d]pyrimidin-2-amine]",EC50,1.48 µM
"COC[C@@H](C)Nc1nc(OC)c2c(-c3ccc4nnn(CC(F)F)c4c3)c[nH]c2n1 [Compound 2294, (R)-5-(1-(2,2-Difluoroethyl)-1H-benzo[d][1,2,3]triazol-6-yl)-4-methoxy-N-(1-methoxypropan-2-yl)-7H-pyrrolo[2,3-d]pyrimidin-2-amine]",EC50,0.0237 µM
"COc1nc(NCC(C)(C)F)nc2[nH]cc(-c3ccc4nccn4n3)c12 [Compound 2298, N-(2-Fluoro-2-methylpropyl)-5-(imidazo[1,2-b]pyridazin-6-yl)-4-methoxy-7H-pyrrolo[2,3-d]pyrimidin-2-amine]",EC50,0.117 µM
"COC[C@@H](C)Nc1nc(OC)c2c(-c3ccc4nccn4n3)c[nH]c2n1 [Compound 2300, (R)-5-(Imidazo[1,2-b]pyridazin-6-yl)-4-methoxy-N-(1-methoxypropan-2-yl)-7H-pyrrolo[2,3-d]pyrimidin-2-amine]",EC50,0.23 µM
"COc1nc(NCC(C)(C)F)nc2[nH]cc(-c3ccn4nccc4c3)c12 [Compound 2305, N-(2-Fluoro-2-methylpropyl)-4-methoxy-5-(pyrazolo[1,5-a]pyridin-5-yl)-7H-pyrrolo[2,3-d]pyrimidin-2-amine]",EC50,0.0218 µM
